In US10071984B2, “Histone demethylase inhibitors” (Celgene Quanticel Research, Inc., priority 2014, dated 2018):

Experiments:
FBXL10 = FBXL10 (Homo sapiens (Human), UniProt Q8NHM5); assay: FBXL10 in vitro enzyme inhibition assay (AlphaScreen); type: biochemical; details: 0.3 nM FBXL10, H3K36me2-biotin peptide
Text: (§1) This assay determines the ability of a test compound to inhibit FBXL11, FBXL10, and PHF8 demethylase activity. Baculovirus expressed FBXL11 (GenBank Accession #NM_012308, AA1-1162) was purchased from BPS Bioscience (Cat#50102). Baculovirus expressed FBXL10 (GenBank Accession #NM_032590, AA 1-650) was purchased from BPS Bioscience (Cat #50120). Baculovirus expressed PHF8 (GenBank Accession NP_055922.1) was purchased from Active Motif (Cat#31435).
The ability of test compounds to inhibit the activity of FBXL10 was determined in 384-well plate format under the following reaction conditions: 0.3 nM FBXL10, 30 nM H3K36me2-biotin labeled peptide (Anaspec cat #64442), 0.2 μM alpha-ketoglutaric acid in assay buffer of 50 mM HEPES, pH7.3, 0.005% Brij35, 0.5 mM TCEP, 0.2 mg/ml BSA, 50 μM sodium L-ascorbate, 5 μM ammonium iron(II) sulfate. Reaction product is determined quantitatively by AlphaScreen detection after the addition of detection reagents anti-H3K36me1 antibody, AlphaScreen® Streptavidin-coated Donor beads, and AlphaScreen® Protein A Acceptor beads in 50 mM HEPES, pH7.3, 10 mM NaCl, 0.005% Brij35, 5 mM EDTA, 2 mg/ml BSA to final 10 μg/ml beads.
The assay reaction was initiated by the following: 3 μl of the mixture of 90 nM H3K36me2-biotin labeled peptide and 0.6 μM alpha-ketoglutaric acid with 3 μl of 11-point serial diluted inhibitor in 3% DMSO are added to each well of 384 well Proxiplate (Perkin Elmer), followed by the addition of 3 μl of 0.9 nM FBXL10 to initiate the reaction. The reaction mixture is incubated at room temperature for 1 hour, and terminated by the addition of 3 μl of appropriate dilution of anti H3K36me1 antibody in 50 mM HEPES, pH7.3, 10 mM NaCl, 0.005% Brij35, 5 mM EDTA, 2 mg/ml BSA. Plates will then incubated at room temperature for 40 minutes, followed by addition of 3 ul of 50 μg/ml AlphaScreen® Streptavidin-coated Donor beads and AlphaScreen® Protein A Acceptor beads in 50 mM HEPES, pH7.3, 10 mM NaCl, 0.005% Brij35, 5 mM EDTA, 2 mg/ml BSA. Plates will then be read by EnVision Multilabel Reader in AlphaScreen mode after minimum 2 hour incubation at room temperature. The AlphaScreen signal for each well is used to determine inhibition constant (IC50).
(§2) The ability of the compounds disclosed herein to inhibit demethylase activity was quantified and the respective IC50 value was determined.

PHF8 = PHF8 (Homo sapiens (Human), UniProt Q9UPP1); assay: PHF8 in vitro enzyme inhibition assay (TR-FRET); type: biochemical; details: 3 nM PHF8, H3K9me1-biotin peptide
Text: as §1
The ability of test compounds to inhibit the activity of PHF8 was determined in 384-well plate format under the following reaction conditions: 3 nM PHF8, 200 nM H3K9me1-biotin labeled peptide (Anaspec cat #64358), 0.5 μM alpha-ketoglutaric acid in assay buffer of 50 mM HEPES, pH7.3, 0.005% Brij35, 0.5 mM TCEP, 0.2 mg/ml BSA, 50 μM sodium L-ascorbate, and 5 μM ammonium iron(II) sulfate. Reaction product was determined quantitatively by TR-FRET after the addition of detection reagent Phycolink Streptavidin-allophycocyanin (Prozyme) and Europium-anti-unmodified-histone H3 lysine 9/lysine27 (H3K9/K27) antibody (PerkinElmer) in the presence of 5 mM EDTA in LANCE detection buffer (PerkinElmer) at a final concentration of 25 nM and 0.5 nM, respectively.
The assay reaction was initiated by the following: 2 μl of the mixture of 600 nM H3K9me1-biotin labeled peptide and 1.5 μM alpha-ketoglutaric acid with 2 μl of 11-point serial diluted inhibitor in 3% DMSO were added to each well of the plate, followed by the addition of 2 μl of 9 nM PHF8 to initiate the reaction. The reaction mixture was incubated at room temperature for 15 minutes, and terminated by the addition of 6 μl of 5 mM EDTA in LANCE detection buffer containing 50 nM Phycolink Streptavidin-allophycocyanin and 1 nM Europium-anti-unmodified H3K9/K27 antibody. Plates were read by EnVision Multilabel Reader in TR-FRET mode (excitation at 320 nm, emission at 615 nm and 665 nm) after 1 hour incubation at room temperature. A ratio was calculated (665/615) for each well and fitted to determine inhibition constant (IC50).
as §2

Sequence of PHF8 (Q9UPP1 37-1060): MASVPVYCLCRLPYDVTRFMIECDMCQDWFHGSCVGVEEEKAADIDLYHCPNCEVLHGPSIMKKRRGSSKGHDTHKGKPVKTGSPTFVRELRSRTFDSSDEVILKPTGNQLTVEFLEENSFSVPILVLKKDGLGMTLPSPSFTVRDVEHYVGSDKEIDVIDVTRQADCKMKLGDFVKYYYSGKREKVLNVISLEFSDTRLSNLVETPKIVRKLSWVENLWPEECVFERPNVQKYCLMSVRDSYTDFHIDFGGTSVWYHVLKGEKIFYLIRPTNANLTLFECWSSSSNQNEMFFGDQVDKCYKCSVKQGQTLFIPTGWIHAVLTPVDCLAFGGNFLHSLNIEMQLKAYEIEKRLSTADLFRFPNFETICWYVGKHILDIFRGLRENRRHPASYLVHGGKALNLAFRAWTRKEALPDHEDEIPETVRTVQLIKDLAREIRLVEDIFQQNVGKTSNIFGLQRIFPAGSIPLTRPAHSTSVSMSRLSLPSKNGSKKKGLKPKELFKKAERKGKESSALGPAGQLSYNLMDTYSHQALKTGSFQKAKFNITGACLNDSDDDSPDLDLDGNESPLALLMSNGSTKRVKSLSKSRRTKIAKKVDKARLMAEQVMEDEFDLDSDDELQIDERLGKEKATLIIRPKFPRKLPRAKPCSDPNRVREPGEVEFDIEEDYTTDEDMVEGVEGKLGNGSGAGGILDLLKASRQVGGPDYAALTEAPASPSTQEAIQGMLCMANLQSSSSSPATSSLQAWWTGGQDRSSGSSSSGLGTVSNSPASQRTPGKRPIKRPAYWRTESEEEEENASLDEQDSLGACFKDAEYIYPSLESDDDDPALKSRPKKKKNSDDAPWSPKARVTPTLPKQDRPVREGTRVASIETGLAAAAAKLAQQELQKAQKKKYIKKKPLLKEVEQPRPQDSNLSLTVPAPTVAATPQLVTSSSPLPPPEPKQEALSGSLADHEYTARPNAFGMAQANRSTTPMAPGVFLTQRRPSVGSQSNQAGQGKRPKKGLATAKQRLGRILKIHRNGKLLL
Sequence of FBXL10 (Q8NHM5 1-650): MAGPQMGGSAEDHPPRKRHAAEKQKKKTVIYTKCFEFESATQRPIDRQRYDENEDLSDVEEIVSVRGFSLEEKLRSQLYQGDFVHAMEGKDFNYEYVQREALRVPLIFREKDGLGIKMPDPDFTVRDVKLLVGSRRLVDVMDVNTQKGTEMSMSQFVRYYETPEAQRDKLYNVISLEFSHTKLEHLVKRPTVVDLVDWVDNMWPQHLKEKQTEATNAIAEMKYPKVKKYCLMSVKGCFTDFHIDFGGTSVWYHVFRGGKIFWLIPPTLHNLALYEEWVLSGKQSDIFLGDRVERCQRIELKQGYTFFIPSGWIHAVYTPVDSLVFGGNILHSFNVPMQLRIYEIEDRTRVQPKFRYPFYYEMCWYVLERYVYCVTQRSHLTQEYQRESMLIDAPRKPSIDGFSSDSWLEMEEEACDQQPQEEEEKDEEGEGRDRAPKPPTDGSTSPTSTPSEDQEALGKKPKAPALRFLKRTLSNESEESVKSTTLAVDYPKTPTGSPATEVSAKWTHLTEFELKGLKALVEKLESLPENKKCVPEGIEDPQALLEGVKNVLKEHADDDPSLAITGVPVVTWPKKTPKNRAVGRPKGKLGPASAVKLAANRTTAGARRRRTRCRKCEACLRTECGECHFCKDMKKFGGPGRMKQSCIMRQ

| Compound | IC50 (FBXL10) [nM] | IC50 (PHF8) [nM] |
| --- | --- | --- |
| FC(F)(F)c1[nH]nnc1-c1ccnc(-c2cn(CCc3cccc4ccccc34)cn2)c1 [Example 37, 2-[1-(2-naphthalen-1-ylethyl)imidazol-4-yl]-4-[5-(trifluoromethyl)-1H-triazol-4-yl]pyridine] | ≤ 100 | > 10000 |
| N#Cc1[nH]nnc1-c1ccnc(-c2cn(Cc3ccccc3Cl)cn2)c1 [Example 13, 4-[2-[1-[(2-chlorophenyl)methyl]imidazol-4-yl]pyridin-4-yl]-1H-triazole-5-carbonitrile] | ≤ 100 | 1000 to 10000 |
| N#Cc1[nH]nnc1-c1ccnc(-c2cn(Cc3cccc(Cl)c3Cl)cn2)c1 [Example 14, 4-[2-[1-[(2,3-dichlorophenyl)methyl]imidazol-4-yl]pyridin-4-yl]-1H-triazole-5-carbonitrile] | ≤ 100 | 1000 to 10000 |
| CC(Cc1ccccc1)n1cnc(-c2cc(-c3c[nH]nn3)ccn2)c1 (stereo not shown) [Example 33, 2-[1-(1-phenylpropan-2-yl)imidazol-4-yl]-4-(1H-triazol-4-yl)pyridine] |  | 1000 to 10000 |
| Cn1cnc(-c2cc(-c3nn[nH]c3C#N)ccn2)c1-c1ccc(F)cc1OCC1CC1 [Example 39, 4-[2-[5-[2-(cyclopropylmethoxy)-4-fluorophenyl]-1-methylimidazol-4-yl]pyridin-4-yl]-1H-triazole-5-carbonitrile] | ≤ 100 | 1000 to 10000 |
| c1ccc(-c2ccccc2CCn2cnc(-c3cc(-c4c[nH]nn4)ccn3)c2)cc1 [Example 27, 2-[1-[2-(2-phenylphenyl)ethyl]imidazol-4-yl]-4-(1H-triazol-4-yl)pyridine] |  | 1000 to 10000 |
| Fc1c(Cn2cnc(-c3cc(-c4c[nH]nn4)ccn3)c2)cccc1OC(F)(F)F [Example 26, 2-[1-[[2-fluoro-3-(trifluoromethoxy)phenyl]methyl]imidazol-44-yl]-4-(1H-triazol-4-yl)pyridine] |  | 1000 to 10000 |
| Cn1cnc(-c2cc(-c3nn[nH]c3F)ccn2)c1-c1ccc(F)cc1OCC1CC1 [Example 41, 2-[5-[2-(cyclopropylmethoxy)-4-fluorophenyl]-1-methylimidazol-4-yl]-4-(5-fluoro-1H-triazol-4-yl)pyridine] | ≤ 100 | 1000 to 10000 |
| c1ccc(COc2ccccc2CCn2cnc(-c3cc(-c4c[nH]nn4)ccn3)c2)cc1 [Example 17, 2-[1-[2-(2-phenylmethoxyphenyl)ethyl]imidazol-4-yl]-4-(1H-triazol-4-yl)pyridine] | ≤ 100 | 1000 to 10000 |
| Ic1[nH]nnc1-c1ccnc(-c2cn(CCc3cccc4ccccc34)cn2)c1 [Example 38, 4-(5-iodo-1H-triazol-4-yl)-2-[1-(2-naphthalen-1-ylethyl)imidazol-4-yl]pyridine] | ≤ 100 | > 10000 |
| Cn1cnc(-c2cc(-c3nn[nH]c3Cl)ccn2)c1-c1ccc(F)cc1OCC1CC1 [Example 40, 4-(5-chloro-1H-triazol-4-yl)-2-[5-[2-(cyclopropylmethoxy)-4-fluorophenyl]-1-methylimidazol-4-yl]pyridine] | ≤ 100 | > 10000 |
| Clc1[nH]nnc1-c1ccnc(-c2cn(CCc3cccc4ccccc34)cn2)c1 [Example 36, 4-(5-chloro-1H-triazol-4-yl)-2-[1-(2-naphthalen-1-ylethyl)imidazol-4-yl]pyridine] | ≤ 100 | 1000 to 10000 |

Second part, the compound after the results:

| IC50 (FBXL10) [nM] | IC50 (PHF8) [nM] | Compound |
| --- | --- | --- |
| ≤ 100 | 100 to 1000 | c1ccc(OCC2CC2)c(CCn2cnc(-c3cc(-c4c[nH]nn4)ccn3)c2)c1 [Example 11, 2-[1-[2-[2-(cyclopropylmethoxy)phenyl]ethyl]imidazol-4-yl]-4-(1H-triazol-4-yl)pyridine] |
| ≤ 100 | 100 to 1000 | FC(F)(F)c1ccccc1CCn1cnc(-c2cc(-c3c[nH]nn3)ccn2)c1 [Example 31, 4-(1H-triazol-4-yl)-2-[1-[2-[2-(trifluoromethyl)phenyl]ethyl]imidazol-4-yl]pyridine] |
| ≤ 100 | 1000 to 10000 | c1ccc(Oc2ccccc2CCn2cnc(-c3cc(-c4c[nH]nn4)ccn3)c2)cc1 [Example 18, 2-[1-[2-(2-phenoxyphenyl)ethyl]imidazol-4-yl]-4-(1H-triazol-4-yl)pyridine] |
| ≤ 100 | 100 to 1000 | FC(F)(F)COc1ccccc1CCn1cnc(-c2cc(-c3c[nH]nn3)ccn2)c1 [Example 10, 4-(1H-triazol-4-yl)-2-[1-[2-[2-(2,2,2-trifluoroethoxy)phenyl]ethyl]imidazol-4-yl]pyridine] |
| ≤ 100 | 100 to 1000 | N#Cc1[nH]nnc1-c1ccnc(-c2cn(CCc3cccc4ccccc34)cn2)c1 [Example 16, 4-[2-[1-(2-naphthalen-1-ylethyl)imidazol-4-yl]pyridin-4-yl]-1H-triazole-5-carbonitrile] |
| ≤ 100 | 100 to 1000 | Clc1cccc(Cn2cnc(-c3cc(-c4nn[nH]c4I)ccn3)c2)c1Cl [Example 19, 2-[1-[(2,3-dichlorophenyl)methyl]imidazol-4-yl]-4-(5-iodo-1H-triazol-4-yl)pyridine] |
| ≤ 100 | 100 to 1000 | Cn1cnc(-c2cc(-c3c[nH]nn3)ccn2)c1-c1ccc(F)cc1 [Example 3, 2-[5-(4-fluorophenyl)-1-methylimidazol-4-yl]-4-(1H-triazol-4-yl)pyridine] |
| ≤ 100 | 100 to 1000 | COc1cc(-c2c(-c3cc(-c4c[nH]nn4)ccn3)ncn2C)ccc1F [Example 24, 2-[5-(4-fluoro-3-methoxyphenyl)-1-methylimidazol-4-yl]-4-(1H-triazol-4-yl)pyridine] |
| ≤ 100 | 100 to 1000 | Fc1[nH]nnc1-c1ccnc(-c2cn(CCc3cccc4ccccc34)cn2)c1 [Example 35, 4-(5-fluoro-1H-triazol-4-yl)-2-[1-(2-naphthalen-1-ylethyl)imidazol-4-yl]pyridine] |
| ≤ 100 | 100 to 1000 | CC(C)(Cn1cnc(-c2cc(-c3c[nH]nn3)ccn2)c1)c1ccccc1Cl [Example 32, 2-[1-[2-(2-chlorophenyl)-2-methylpropyl]imidazol-4-yl]-4-(1H-triazol-4-yl)pyridine] |
| ≤ 100 | 100 to 1000 | COc1cccc(Cn2cnc(-c3cc(-c4c[nH]nn4)ccn3)c2)c1F [Example 30, 2-[1-[(2-fluoro-3-methoxyphenyl)methyl]imidazol-4-yl]-4-(1H-triazol-4-yl)pyridine] |
| ≤ 100 | 100 to 1000 | Fc1[nH]nnc1-c1ccnc(-c2cn(Cc3cccc(Cl)c3Cl)cn2)c1 [Example 20, 2-[1-[(2,3-dichlorophenyl)methyl]imidazol-4-yl]-4-(5-fluoro-1H-triazol-4-yl)pyridine] |
| ≤ 100 | ≤ 100 | c1ccc2c(c1)OCCC2Cn1cnc(-c2cc(-c3c[nH]nn3)ccn2)c1 (stereo not shown) [Example 12, 2-[1-(3,4-dihydro-2H-chromen-4-ylmethyl)imidazol-4-yl]-4-(1H-triazol-4-yl)pyridine] |
| ≤ 100 | 100 to 1000 | N#Cc1[nH]nnc1-c1ccnc(-c2cn(CC3CCCc4ccccc43)cn2)c1 (stereo not shown) [Example 15, 4-[2-[1-(1,2,3,4-tetrahydronaphthalen-1-ylmethyl)imidazol-4-yl]pyridin-4-yl]-1H-triazole-5-carbonitrile] |
